By IC50 is commonly meant the concentration at which inhibition is half-maximal.

The assay addresses human ADRA2C receptor (Homo sapiens (Human), UniProt P18825). Nature of the assay: In vitro activity assay to determine the inhibition of recombinant ADRA2C (CHO-K1 cells, aequorin bioluminescence). The format is cell-based. The following applies: inhibition of noradrenaline-induced bioluminescence signal; some mean values from multiple determinations; read-out: ARα2C IC50. How it is done:
B-2. In Vitro Activity Assay to Determine the Inhibition of Recombinant ADRA2C
The human ADRA2C receptor belongs to the G protein(guanine-dependent protein)-coupled receptors, the main function of which is the transduction of signals into the interior of the cell.
The investigations of the inhibition of the recombinant human ADRA2C receptors were carried out with stabily transfected CHO-K1 cells coexpressing the Gaq protein and the calcium-sensitive photoprotein aequorin. In this recombinant system, binding of the agonists noradrenaline to the ADRA2C receptor leads, after activation of a signal cascade, to calcium release from intracellular stores, which is detected by the intracellular calcium sensor aequorin as a bioluminescent signal. The method is described in detail in the reference below. [Wunder F., Kalthof B., Muller T., Hueser J. Functional Cell-Based Assays in Microliter Volumes for Ultra-High Throughput Screening. Combinatorial Chemistry & High Throughput Screening, Volume 11, Number 7, 2008, pp. 495-504(10). doi.org/10.2174/138620708785204054]
The activity of the test substances was determined via their ability to inhibit the agonist-induced increase of the bioluminescence signal. The concentration which can block half of this signal increase is referred to as IC50. The IC50 value is calculated using the 4 parameter logistic function (Hill function):
Top=upper threshold, Bottom=lower threshold, Slope=slope, IC50=turning point

Chain of human ADRA2C receptor (P18825 whole entry): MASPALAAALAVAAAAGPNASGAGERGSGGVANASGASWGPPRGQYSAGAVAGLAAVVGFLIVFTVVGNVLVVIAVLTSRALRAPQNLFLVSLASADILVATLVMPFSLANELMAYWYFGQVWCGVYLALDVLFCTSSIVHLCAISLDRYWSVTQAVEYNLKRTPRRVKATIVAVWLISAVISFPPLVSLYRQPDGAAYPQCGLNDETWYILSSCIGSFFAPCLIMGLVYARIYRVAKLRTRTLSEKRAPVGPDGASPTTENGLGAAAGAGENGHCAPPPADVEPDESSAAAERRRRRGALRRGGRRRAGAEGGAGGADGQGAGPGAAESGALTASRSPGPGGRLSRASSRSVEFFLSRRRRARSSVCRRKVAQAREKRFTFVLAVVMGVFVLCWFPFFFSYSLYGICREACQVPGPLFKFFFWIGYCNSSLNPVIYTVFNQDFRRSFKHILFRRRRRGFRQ

Consider `Cc1sc(N2CCC(N3CCC[C@@H](C)C3)CC2)nc1C(=O)NCc1ncc(F)cc1F` [Example 9, N-[(3,5-difluoropyridin-2-yl)methyl]-5-methyl-2-[(3R)-3-methyl[1,4′-bipiperidin]-1′-yl]-1,3-thiazole-4-carboxamide], for which the IC50 was 0.17 µM.

In the case of `C[C@@H]1CCCN(C2CCN(c3nc(C(=O)NCc4ncc(F)cc4F)cs3)CC2)C1` [Example 10, N-[(3,5-difluoropyridin-2-yl)methyl]-2-[(3R)-3-methyl[1,4′-bipiperidin]-1′-yl]-1,3-thiazole-4-carboxamide], the IC50 worked out at 0.0214 µM. The figure for `C[C@@H]1CCCN(C2CCN(c3nc(C(F)(F)F)c(C(=O)NCc4ncc(F)cc4F)s3)CC2)C1` [Example 11, N-[(3,5-difluoropyridin-2-yl)methyl]-2-[(3R)-3-methyl[1,4′-bipiperidin]-1′-yl]-4-(trifluoromethyl)-1,3-thiazole-5-carboxamide] is 0.14 µM; for `CCc1sc(N2CCC(N3CCC[C@@H](C)C3)CC2)nc1C(=O)NCc1ncc(F)cc1F` [Example 12, N-[(3,5-difluoropyridin-2-yl)methyl]-5-ethyl-2-[(3R)-3-methyl[1,4′-bipiperidin]-1′-yl]-1,3-thiazole-4-carboxamide] it is 0.107 µM.

`C[C@@H]1CCCN(C2CCN(c3nc(C(=O)NCc4ncc(F)cc4F)co3)CC2)C1` [Example 13, N-[(3,5-difluoropyridin-2-yl)methyl]-2-[(3R)-3-methyl[1,4′-bipiperidin]-1′-yl]-1,3-oxazole-4-carboxamide]: the IC50 was determined as 0.209 µM. Consider `Cc1oc(N2CCC(N3CCC[C@@H](C)C3)CC2)nc1C(=O)NCc1ncc(F)cc1F` [Example 14, N-[(3,5-difluoropyridin-2-yl)methyl]-5-methyl-2-[(3R)-3-methyl[1,4′-bipiperidin]-1′-yl]-1,3-oxazole-4-carboxamide], for which the IC50 was determined as 0.211 µM. With `CO[C@@H]1CCCN(C2CCN(c3ncc(C(=O)NCc4ncc(F)cc4F)s3)CC2)C1` [Example 15, N-[(3,5-difluoropyridin-2-yl)methyl]-2-[(3R)-3-methoxy[1,4′-bipiperidin]-1′-yl]-1,3-thiazole-5-carboxamide], the IC50 was 1.85 µM.

Take `C[C@@H]1CCCN(C2CCN(c3ncc(C(=O)NCc4cccc(C(F)(F)F)c4)s3)CC2)C1` [Example 19, 2-[(3R)-3-Methyl[1,4′-bipiperidin]-1′-yl]-N-[3-(trifluoromethyl)benzyl]-1,3-thiazole-5-carboxamide]: the IC50 came out at 0.69 µM.

Regarding `C[C@@H]1CCCN(C2CCN(c3ncc(C(=O)NCc4ncccc4F)s3)CC2)C1` [Example 20, N-[(3-Fluoropyridin-2-yl)methyl]-2-[(3R)-3-methyl[1,4′-bipiperidin]-1′-yl]-1,3-thiazole-5-carboxamide], the IC50 amounted to 0.11 µM. The figure for `C[C@@H]1CCCN(C2CCN(c3ncc(C(=O)NCc4cc(Cl)ccc4F)s3)CC2)C1` [Example 21, N-(5-Chloro-2-fluorobenzyl)-2-[(3R)-3-methyl[1,4′-bipiperidin]-1′-yl]-1,3-thiazole-5-carboxamide] is 0.0072 µM; for `C[C@@H]1CCCN(C2CCN(c3ncc(C(=O)NCc4ccc(C(F)(F)F)cc4)s3)CC2)C1` [Example 22, 2-[(3R)-3-Methyl[1,4′-bipiperidin]-1′-yl]-N-[4-(trifluoromethyl)benzyl]-1,3-thiazole-5-carboxamide] it is 0.64 µM; for `C[C@@H]1CCCN(C2CCN(c3ncc(C(=O)NCc4ncc(Cl)cc4F)s3)CC2)C1` [Example 23, N-[(5-chloro-3-fluoropyridin-2-yl)methyl]-2-[(3R)-3-methyl[1,4′-bipiperidin]-1′-yl]-1,3-thiazole-5-carboxamide] it is 0.017 µM.

For `Cc1cccnc1CNC(=O)c1cnc(N2CCC(N3CCC[C@@H](C)C3)CC2)s1` [Example 24, 2-[(3R)-3-methyl[1,4′-bipiperidin]-1′-yl]-N-[(3-methylpyridin-2-yl)methyl]-1,3-thiazole-5-carboxamide], the IC50 is 1.06 µM.

For `Cc1ccnc(CNC(=O)c2cnc(N3CCC(N4CCC[C@@H](C)C4)CC3)s2)c1` [Example 25, 2-[(3R)-3-methyl[1,4′-bipiperidin]-1′-yl]-N-[(4-methylpyridin-2-yl)methyl]-1,3-thiazole-5-carboxamide], the IC50 turned out to be 2.4 µM. To `C[C@@H]1CCCN(C2CCN(c3ncc(C(=O)NCc4ncccc4Cl)s3)CC2)C1` [Example 26, N-[(3-chloropyridin-2-yl)methyl]-2-[(3R)-3-methyl[1,4′-bipiperidin]-1′-yl]-1,3-thiazole-5-carboxamide] belongs 0.28 µM. To `C[C@@H]1CCCN(C2CCN(c3ncc(C(=O)N(C)Cc4ncccc4F)s3)CC2)C1` [Example 27, N-[(3-fluoropyridin-2-yl)methyl]-N-methyl-2-[(3R)-3-methyl[1,4′-bipiperidin]-1′-yl]-1,3-thiazole-5-carboxamide] belongs 0.31 µM; to `C[C@@H]1CCCN(C2CCN(c3ncc(C(=O)NCc4cccc(C(F)(F)F)n4)s3)CC2)C1` [Example 28, 2-[(3R)-3-methyl[1,4′-bipiperidin]-1′-yl]-N-{[6-(trifluoromethyl)pyridin-2-yl]methyl}-1,3-thiazole-5-carboxamide], 0.89 µM; to `C[C@@H]1CCCN(C2CCN(c3ncc(C(=O)NCc4ccc(Cl)cn4)s3)CC2)C1` [Example 29, N-[(5-chloropyridin-2-yl)methyl]-2-[(3R)-3-methyl[1,4′-bipiperidin]-1′-yl]-1,3-thiazole-5-carboxamide], 0.096 µM. Regarding `C[C@@H]1CCCN(C2CCN(c3ncc(C(=O)NCc4ncc(F)cc4Cl)s3)CC2)C1` [Example 31, N-[(3-chloro-5-fluoropyridin-2-yl)methyl]-2-[(3R)-3-methyl[1,4′-bipiperidin]-1′-yl]-1,3-thiazole-5-carboxamide], the IC50 turned out to be 0.089 µM. The figure for `C[C@@H]1CCCN(C2CCN(c3ncc(C(=O)NCc4cccc(OC(F)(F)F)n4)s3)CC2)C1` [Example 32, 2-[(3R)-3-methyl[1,4′-bipiperidin]-1′-yl]-N-{[6-(trifluoromethoxy)pyridin-2-yl]methyl}-1,3-thiazole-5-carboxamide] is 0.64 µM. On to `C[C@@H]1CCCN(C2CCN(c3ncc(C(=O)NCc4ccc(Cl)cc4)s3)CC2)C1` [Example 33, N-(4-chlorobenzyl)-2-[(3R)-3-methyl[1,4′-bipiperidin]-1′-yl]-1,3-thiazole-5-carboxamide], for which the IC50 was found to be 0.015 µM. Consider `C[C@@H]1CCCN(C2CCN(c3ncc(C(=O)NCc4cc(F)ccc4Cl)s3)CC2)C1` [Example 34, N-(2-chloro-5-fluorobenzyl)-2-[(3R)-3-methyl[1,4′-bipiperidin]-1′-yl]-1,3-thiazole-5-carboxamide], for which the IC50 came out at 0.64 µM.

`Cc1ccc(CNC(=O)c2cnc(N3CCC(N4CCC[C@@H](C)C4)CC3)s2)cc1` [Example 35, N-(4-methylbenzyl)-2-[(3R)-3-methyl[1,4′-bipiperidin]-1′-yl]-1,3-thiazole-5-carboxamide]: the IC50 turned out to be 1 µM. As to `Cc1cccc(CNC(=O)c2cnc(N3CCC(N4CCC[C@@H](C)C4)CC3)s2)c1` [Example 36, N-(3-methylbenzyl)-2-[(3R)-3-methyl[1,4′-bipiperidin]-1′-yl]-1,3-thiazole-5-carboxamide], the IC50 is 0.19 µM.

(Values after patent publication US20240000767A1, “COMBINATION OF AN ALPHA2-ADRENOCEPTOR SUBTYPE C (ALPHA-2C) ANTAGONIST WITH A TASK1/3 CHANNEL BLOCKER FOR THE TREATMENT OF SLEEP APNEA” (Bayer Aktiengesellschaft, priority 2020, published 2024).)
